pIC50: −log10 of the molar value.
Target: Complement factor D (Homo sapiens, UniProt P00746)
Assay: Inhibition Assay: Human Factor D (purified from human serum, Complement Technology, Inc.) at 80 nM final concentration is incubated with test compound at various concentrations for 5 minutes at room temperature in 50 mM Tris, 1M NaCl, pH 7.5. A synthetic substrate Z-L-Lys-SBzl and DTNB (Ellman's reagent) are added to final concentrations of 100 Î¼M each. Absorbance at 405 nm (A405) is recorded at 30 second intervals for 30 minutes using a microplate spectrophotometer. IC50 values are calculated by nonlinear regression of complement Factor D reaction rates as a function of test compound concentration.

Complement factor D, sequence (P00746 whole entry): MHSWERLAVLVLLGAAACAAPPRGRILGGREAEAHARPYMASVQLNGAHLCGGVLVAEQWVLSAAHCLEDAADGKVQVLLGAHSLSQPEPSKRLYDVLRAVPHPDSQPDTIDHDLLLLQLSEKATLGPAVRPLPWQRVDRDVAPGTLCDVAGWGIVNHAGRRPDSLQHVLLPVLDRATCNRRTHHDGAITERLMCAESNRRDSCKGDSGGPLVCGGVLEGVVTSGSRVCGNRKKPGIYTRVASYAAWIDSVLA

Q: With `CC(=O)c1cn(CC(=O)N2C[C@H](F)C[C@H]2C(=O)Nc2cccc(Cl)c2C(F)(F)F)c2ccc(Nc3cncnc3)cc12` as the compound, how does the pIC50 read?
A: > 6.00

Source: ChEMBL document CHEMBL5727714, “Amino compounds for treatment of medical disorders” (2020)
